Laboratory results taken from the supplement of paper PMC10307832.

What was measured:
Assay in all cases: relative viability (nuclei count vs DMSO), 5 days (fraction); higher = more cells survive
[1] = compound: CS(=O)(=O)N1CCN(Cc2cc3nc(-c4cccc5[nH]ncc45)nc(N4CCOCC4)c3s2)CC1 [Pictilisib] + CC(=O)Nc1cccc(-n2c(=O)n(C3CC3)c(=O)c3c(Nc4ccc(I)cc4F)n(C)c(=O)c(C)c32)c1 [Trametinib] (partner 0.02 µM)
How it was run: (§1)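 Relative viability divides the nuclei count in treated wells by that in vehicle wells. Lung cancer cell lines were seeded in 1536-well plates, dosed by pin tool the next day, and fixed and stained after 5 days in one step with final 0.05% Triton X-100, 1% formaldehyde and 1 ug/ml Hoechst. Dosing was a single drug or a fixed anchor-drug dose plus five library-drug doses (not always all listed) in √10 steps, and values are medians of duplicate plates imaged at 4×.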

[2] = compound: CS(=O)(=O)N1CCN(Cc2cc3nc(-c4cccc5[nH]ncc45)nc(N4CCOCC4)c3s2)CC1 [Pictilisib] + O=C(c1cc(Cc2n[nH]c(=O)c3ccccc23)ccc1F)N1CCN(C(=O)C2CC2)CC1 [Olaparib] (partner 8 µM)
How it was run: as §1

[3] = compound: NC1(c2ccc(-c3nc4ccn5c(=O)[nH]nc5c4cc3-c3ccccc3)cc2)CCC1 [MK-2206] + CC(=O)c1c(C)c2cnc(Nc3ccc(N4CCNCC4)cn3)nc2n(C2CCCC2)c1=O [Palbociclib] (partner 0.5 µM)
How it was run: as §1

[4] = compound: NC1(c2ccc(-c3nc4ccn5c(=O)[nH]nc5c4cc3-c3ccccc3)cc2)CCC1 [MK-2206] + C[C@]1(O)C[C@@H](c2nc(-c3ccc4ccc(-c5ccccc5)nc4c3)c3c(N)nccn32)C1 [Linsitinib] (partner 1 µM)
How it was run: as §1

[5] = compound: NC1(c2ccc(-c3nc4ccn5c(=O)[nH]nc5c4cc3-c3ccccc3)cc2)CCC1 [MK-2206] + Nc1ncn([C@H]2C[C@H](O)[C@@H](CO)O2)c(=O)n1 [Decitabine] (partner 2 µM)
How it was run: as §1

Cell Line | relative viability ([1]; first compound 0.02 µM) | relative viability ([1]; first compound 0.06325 µM) | relative viability ([1]; first compound 0.6325 µM) | relative viability ([1]; first compound 2 µM) | relative viability ([2]; first compound 0.02 µM) | relative viability ([2]; first compound 0.06325 µM) | relative viability ([2]; first compound 0.6325 µM) | relative viability ([2]; first compound 2 µM) | relative viability ([3]; first compound 0.01 µM) | relative viability ([3]; first compound 0.03162 µM) | relative viability ([3]; first compound 0.3162 µM) | relative viability ([3]; first compound 1 µM) | relative viability ([4]; first compound 0.01 µM) | relative viability ([4]; first compound 0.03162 µM) | relative viability ([4]; first compound 0.3162 µM) | relative viability ([4]; first compound 1 µM) | relative viability ([5]; first compound 0.01 µM) | relative viability ([5]; first compound 0.03162 µM) | relative viability ([5]; first compound 0.3162 µM) | relative viability ([5]; first compound 1 µM)
HCC-78 | 0.681 | 0.561 | 0.404 | 0.281 | 0.727 | 0.548 | 0.529 | 0.351 | 0.426 | 0.489 | 0.496 | 0.398 | 0.505 | 0.576 | 0.388 | 0.316 | 0.678 | 0.666 | 0.643 | 0.699
NCI-H358 | 0.132 | 0.141 | 0.122 | 0.104 | 0.627 | 0.729 | 0.479 | 0.271 | 0.16 | 0.124 | 0.138 | 0.141 | 0.79 | 0.707 | 0.542 | 0.602 | 0.216 | 0.208 | 0.201 | 0.217
SK-LU-1 | 0.459 | 0.47 | 0.355 | 0.32 | 0.451 | 0.492 | 0.409 | 0.367 | 0.431 | 0.433 | 0.375 | 0.353 | 1.19 | 1.02 | 0.987 | 1.01 | 0.648 | 0.592 | 0.613 | 0.555
H3255 | 0.611 | 0.556 | 0.394 | 0.243 | 0.585 | 0.599 | 0.472 | 0.412 | 0.313 | 0.302 | 0.283 | 0.288 | 0.975 | 0.924 | 0.847 | 0.726 | 0.611 | 0.628 | 0.51 | 0.502
LOU-NH91 | 0.867 | 0.715 | 0.68 | 0.567 | 0.946 | 0.908 | 0.875 | 0.695 | 0.531 | 0.46 | 0.507 | 0.547 | 0.939 | 1.01 | 0.941 | 0.844 | 0.783 | 0.839 | 0.793 | 0.768
